From patent publication US11866502B2, “Anti-FGFR2 antibodies and methods of use thereof” (Regeneron Pharmaceuticals, Inc., priority 2020, dated 2024)
Read-outs that look alike come from different tables or passages of the source.

How the values were obtained:
[1] = system: SNU-16, MFM-223, NCI-H716, or IM-9 cells; assay: In vitro cytotoxicity assay, several cell lines; assay type: cell-based, human; settings: for IC50: Homo sapiens, read-out: IC50 values
Description: (§1) To test the ability of anti-FGFR2 antibody drug conjugates (ADCs) disclosed herein to kill human cell lines, an in vitro cytotoxicity assay was performed. In vitro cytotoxicity of the anti-FGFR2 ADCs, isotype control ADCs, and reference free payloads were evaluated using the CellTiter-Glo 2.0 Assay Kit (Promega, Cat #G9243), in which the quantity of ATP present is used to determine the number of viable cells in culture. The payloads Maytansinoid 1A, Maytansinoid 1A* (a cell permeable equivalent of Maytansinoid 1A), and Tubulysin 1A were tested as free payloads, and the unconjugated antibodies, including comparator antibodies, were used as controls.
(§2) Five-fold serial dilutions of free payloads were prepared in 100% DMSO, transferred to fresh dilution media, and then added to the cells at a final constant DMSO concentration of 0.2% and final payload concentrations ranging from 20 nM to 0.051 pM. The last well in each dilution series served as an untreated control and included media alone or media plus 0.2% DMSO and was plotted as a continuation of the 5-fold serial dilution. Six days later, 100 uL of CellTiter Glo 2.0 was added to each well, plates were mixed for 2 minutes on an orbital shaker, and plates were incubated at room temperature for 10 minutes. Relative light units (RLUs) were measured on an Envision luminometer (Perkin Elmer) and cell viability was expressed as a percentage of the untreated (100% viable) cells. IC50 values were determined using a four-parameter logistic equation over a 10-point dose response curve (GraphPad Prism). The maximum % kill was also determined for each test article as follows: 100−minimum percent viability.
A comparator anti-FGFR2 ADC that recognizes both FGFR2b and FGFR2c and is conjugated to an auristatin payload (Comp2-BAY-LP) was also tested for cytotoxicity.

[2] = system: SNU-16 + NALM-6 Cells; assay: In vitro bystander assay, SNU-16 + NALM-6 coculture (1:1); assay type: cell-based
Description: (§3) Five-fold serial dilutions of anti-FGFR2 ADCs or isotype control ADCs were prepared in dilution media (Optimem+0.1% BSA) and added to cells at final concentrations ranging from 20 nM to 0.051 pM (concentrations were corrected for the DAR and are dosed based on the effective payload concentration). Five-fold serial dilutions of free payloads were prepared in 100% DMSO, transferred to fresh dilution media, and then added to the cells at a final constant DMSO concentration of 0.2% and final payload concentrations ranging from 20 nM to 0.051 pM. […] Relative light units (RLUs) were measured on an Envision luminometer (Perkin Elmer) and cell viability was expressed as a percentage of the untreated (100% viable) cells. IC50 values were determined using a four-parameter logistic equation over a 10-point dose response curve (GraphPad Prism). The maximum % kill was also determined for each test article as follows: 100−minimum percent viability.
(§4) The ability of the anti-FGFR2 ADCs to induce cytotoxicity in FGFR2 negative cells through release of the payload in FGFR2 positive cells, i.e., bystander activity, was also assessed. […] Cytotoxicity was assessed as described previously for tumor cell lines except that three-fold serial dilutions were performed for all test articles with concentrations ranging from 100 nM to 15.2 pM, and cells were incubated with test articles for 5 days.

[3] = system: SNU-16 cells; assay: In vitro bystander assay, SNU-16 monoculture; assay type: cell-based, human
Description: as §3, §4

[4] = system: SNU-16 cells; assay: In vitro cytotoxicity assay (CellTiter-Glo 2.0), SNU-16 cells; assay type: cell-based, human; settings: for Max % Kill: SNU-16, up to 20 nM
Description: as §1
as §2, with “Five-fold serial dilutions of anti-FGFR2 ADCs or isotype control ADCs were prepared in dilution media (Optimem+0.1% BSA) and added to cells at final concentrations ranging from 20 nM to 0.051 pM (concentrations were corrected for the DAR and are dosed based on the effective payload concentration). Five-fold” for “Five-fold”

[5] = system: MFM-223 cells; assay: In vitro cytotoxicity assay (CellTiter-Glo 2.0), MFM-223 cells; assay type: cell-based, human; settings: for Max % Kill: MFM-223, up to 20 nM
Description: as §1
as §2, with “Five-fold serial dilutions of anti-FGFR2 ADCs or isotype control ADCs were prepared in dilution media (Optimem+0.1% BSA) and added to cells at final concentrations ranging from 20 nM to 0.051 pM (concentrations were corrected for the DAR and are dosed based on the effective payload concentration). Five-fold” for “Five-fold”

[6] = system: NCI-H716 cells; assay: In vitro cytotoxicity assay (CellTiter-Glo 2.0), NCI-H716 cells; assay type: cell-based, human; settings: for Max % Kill: NCI-H716, up to 20 nM
Description: as §1
as §2, with “Five-fold serial dilutions of anti-FGFR2 ADCs or isotype control ADCs were prepared in dilution media (Optimem+0.1% BSA) and added to cells at final concentrations ranging from 20 nM to 0.051 pM (concentrations were corrected for the DAR and are dosed based on the effective payload concentration). Five-fold” for “Five-fold”

[7] = system: IM-9 cells; assay: In vitro cytotoxicity assay (CellTiter-Glo 2.0), IM-9 cells; assay type: cell-based, human; settings: for Max % Kill: IM-9, up to 20 nM
Description: as §1
as §2, with “Five-fold serial dilutions of anti-FGFR2 ADCs or isotype control ADCs were prepared in dilution media (Optimem+0.1% BSA) and added to cells at final concentrations ranging from 20 nM to 0.051 pM (concentrations were corrected for the DAR and are dosed based on the effective payload concentration). Five-fold” for “Five-fold”

[8] = system: NALM-6 cells; assay: In vitro bystander assay, NALM-6 monoculture; assay type: cell-based
Description: as §3, §4

[9] = minimum tolerated dose below the therapeutic threshold estimated preclinically; trial terminated early; cited from earlier work
[10] = system: FGFR2 positive tumors; settings: cited from earlier work
[11] = molecular target: T1, hFGFR2c.mmh (Homo sapiens, UniProt P21802); assay: Biacore surface plasmon resonance binding kinetics to hFGFR2c.mmh; settings: 25° C.
T1 construct: myc-myc-hexahistidine (MMH) (C); made in house
T1 sequence (P21802 with tags, fused parts or gaps): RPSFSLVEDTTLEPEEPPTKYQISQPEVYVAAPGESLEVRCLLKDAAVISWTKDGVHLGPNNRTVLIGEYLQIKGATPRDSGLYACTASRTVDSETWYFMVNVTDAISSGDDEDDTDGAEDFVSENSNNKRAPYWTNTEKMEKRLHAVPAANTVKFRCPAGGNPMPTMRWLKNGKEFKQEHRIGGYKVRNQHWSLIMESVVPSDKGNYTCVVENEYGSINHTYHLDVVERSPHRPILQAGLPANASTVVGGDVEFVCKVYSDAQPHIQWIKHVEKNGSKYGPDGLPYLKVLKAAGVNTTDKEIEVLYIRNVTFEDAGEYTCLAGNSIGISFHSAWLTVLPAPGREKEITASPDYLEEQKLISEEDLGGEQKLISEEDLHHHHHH
Description: The equilibrium dissociation constants (KD values) for hFGFR2b.mmh binding to anti-FGFR2 antibodies conjugated with Tubulysin (“tubulysin 1ALP”), Auristatin (“auristatin LP1”), or mc-VC-PAB-NMe-C3-May (“maytansinoid 1ALP”) were determined using a real-time surface plasmon resonance biosensor assay on a Biacore 2000 or a Biacore 4000 instrument. The Biacore sensor surface was derivatized by amine coupling with a monoclonal mouse anti-human Fc antibody (REGN2567 or Jackson Cat. No #109-005-098) to capture anti-FGFR2 ADC and parent unmodified antibodies expressed with human constant regions. Biacore binding studies were performed in HBS-EP running buffer (0.01M HEPES pH 7.4, 0.15M NaCl, 3 mM EDTA, 0.05% v/v Surfactant P20). […] Association of hFGFR2b-MMH or hFGFR2c-MMH to each of the captured ADCs and monoclonal antibodies was monitored for 4 minutes. Subsequently, dissociation was monitored for 10 minutes in HBS-EP running buffer. […] Kinetic association (ka) and dissociation (kd) rate constants were determined by fitting the real-time sensorgrams to a 1:1 binding model using Scrubber 2.0c curve fitting software. […] Binding dissociation equilibrium constants (KD) and dissociative half-lives (t½) were calculated from the kinetic rate constants as: […]

[12] = molecular target: T2, hFGFR2b.mmh (Homo sapiens, UniProt P21802); assay: Biacore surface plasmon resonance binding kinetics to hFGFR2b.mmh; settings: 25° C.
T2 construct: myc-myc-hexahistidine (MMH) (C); made in house
T2 sequence (P21802 with tags, fused parts or gaps isoform P21802-3): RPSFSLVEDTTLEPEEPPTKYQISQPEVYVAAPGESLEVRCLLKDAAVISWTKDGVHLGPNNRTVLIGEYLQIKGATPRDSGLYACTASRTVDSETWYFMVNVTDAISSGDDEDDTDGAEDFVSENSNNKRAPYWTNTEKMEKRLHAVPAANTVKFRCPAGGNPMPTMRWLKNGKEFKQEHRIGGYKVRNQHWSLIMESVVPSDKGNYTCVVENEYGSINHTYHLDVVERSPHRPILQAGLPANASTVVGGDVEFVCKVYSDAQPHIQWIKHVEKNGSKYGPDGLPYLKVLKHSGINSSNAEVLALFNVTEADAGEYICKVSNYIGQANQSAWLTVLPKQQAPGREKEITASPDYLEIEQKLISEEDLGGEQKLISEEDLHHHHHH
Description: The Biacore sensor surface was derivatized by amine coupling with a monoclonal mouse anti-human Fc antibody (REGN2567 or Jackson Cat. […] Human FGFR2b and Human FGFR2c were prepared in-house expressing a C-terminal myc-myc-hexahistidine tag ([…] NO: 57; […] NO: 58). […] Association of hFGFR2b-MMH or hFGFR2c-MMH to each of the captured ADCs and monoclonal antibodies was monitored for 4 minutes. Subsequently, dissociation was monitored for 10 minutes in HBS-EP running buffer. Anti-human Fc surface was regenerated by a brief injection of 20 mM H3PO4. All binding kinetic experiments were performed at 25° C. […] All sensorgrams were double referenced by subtracting buffer injection sensorgram signal from the corresponding analyte sensorgram, thereby removing artifacts caused by dissociation of the antibody from the capture surface. […] [formula]

Molecule: C#CCCCON(C(=O)[C@@H](NC(=O)[C@H]1CCCCN1C)[C@@H](C)CC)[C@H](C[C@@H](OC(C)=O)c1nc(C(=O)N[C@@H](Cc2ccc(N)cc2)CC(C)(C)C(=O)O)cs1)C(C)C [Tubulysin 1A]
- IC50 [1]: 0.00369 to 0.0743 nM
- IC50 ([2]; 120 h): 0.166 nM
- Max % Kill ([2]; SNU-16 + NALM-6 1:1 coculture, 5 days): 99.5%
- IC50 ([3]; Homo sapiens, SNU-16, 120 h): 0.0184 nM
- Max % Kill ([3]; SNU-16 monoculture, 5 days): 99.3%
- IC50 ([4]; Homo sapiens, SNU-16, 144 h): 0.00369 nM
- Max % Kill ([4]; 6 days): 95.1%
- IC50 ([5]; Homo sapiens, MFM-223, 144 h): 0.00376 nM
- Max % Kill ([5]; 6 days): 89.7%
- IC50 ([6]; Homo sapiens, NCI-H716, 144 h): 0.0743 nM
- Max % Kill ([6]; 6 days): 84.9%
- IC50 ([7]; Homo sapiens, IM-9, 144 h): 0.0212 nM
- Max % Kill ([7]; 6 days): 94.6%
- IC50 ([8]; Homo sapiens, NALM-6, 120 h): 0.0709 nM
- Max % Kill ([8]; NALM-6 monoculture, 5 days): 99.9%

Molecule: CNCCC(=O)N(C)[C@@H](C)C(=O)O[C@H]1CC(=O)N(C)c2cc(cc(OC)c2Cl)C/C(C)=C/C=C/[C@@H](OC)[C@@]2(O)C[C@H](OC(=O)N2)[C@@H](C)[C@@H]2O[C@@]12C [maytansinoid 1A]
- IC50 ([1]; all tested cells, lower end of range, upper end >20 nM): ≥ 4.63 nM
- IC50 ([4]; Homo sapiens, 144 h, SNU-16 (FGFR2b positive), 6 days, read-out: IC50): > 20 nM
- Max % Kill ([4]; 6 days): 9.2%
- IC50 ([5]; Homo sapiens, MFM-223, 144 h, read-out: IC50): > 20 nM
- Max % Kill ([5]; 6 days): 18.1%
- IC50 ([6]; Homo sapiens, 144 h, NCI-H716 (low FGFR2b, high FGFR2c), 6 days, read-out: IC50): > 20 nM
- Max % Kill ([6]; 6 days): 6.4%
- IC50 ([7]; Homo sapiens, 144 h, IM-9 (non-FGFR2 expressing), 6 days, read-out: IC50): > 20 nM
- Max % Kill ([7]; 6 days): 3.7%

B1: Aprutumab ixodotin: FGFR2 antibody conjugated to auristatin (conjugate, chains of the INN, looked up)
VH: EVQLLESGGGLVQPGGSLRLSCAASGFTFSSYAMSWVRQAPGKGLEWVSAISGSGTSTYYADSVKGRFTISRDNSKNTLYLQMNSLRAEDTAVYYCARVRYNWNHGDWFDPWGQGTLVTVSS
VL: QSVLTQPPSASGTPGQRVTISCSGSSSNIGNNYVSWYQQLPGTAPKLLIYENYNRPAGVPDRFSGSKSGTSASLAISGLRSEDEADYYCSSWDDSLNYWVFGGGTKLTVL
modifications: auristatin payload conjugate
notes: FGFR2 antibody conjugated to auristatin
- tolerability in clinical testing [9]: poorly tolerated

B2: Bemarituzumab: anti-FGFR2 therapy (antibody, chains of the INN, looked up, V domains shown)
VH: QVQLVQSGAEVKKPGSSVKVSCKASGYIFTTYNVHWVRQAPGQGLEWIGSIYPDNGDTSYNQNFKGRATITADKSTSTAYMELSSLRSEDTAVYYCARGDFAYWGQGTLVTVSS
VL: DIQMTQSPSSLSASVGDRVTITCKASQGVSNDVAWYQQKPGKAPKLLIYSASYRYTGVPSRFSGSGSGTDFTFTISSLQPEDIATYYCQQHSTTPYTFGQGTKLEIK
- treatment outcome [10]: improvements in early survival and advanced disease

B3: Comp1: Comparator (Five Prime Therapeutics): humanized anti-FGFR2b isoform antibody of Catenacci et al. (Bemarituzumab, FPA144) (antibody, chains of the INN, looked up, V domains shown)
VH: QVQLVQSGAEVKKPGSSVKVSCKASGYIFTTYNVHWVRQAPGQGLEWIGSIYPDNGDTSYNQNFKGRATITADKSTSTAYMELSSLRSEDTAVYYCARGDFAYWGQGTLVTVSS
VL: DIQMTQSPSSLSASVGDRVTITCKASQGVSNDVAWYQQKPGKAPKLLIYSASYRYTGVPSRFSGSGSGTDFTFTISSLQPEDIATYYCQQHSTTPYTFGQGTKLEIK
- EC50 ([1]; all tested lines, unconjugated antibodies): > 20 nM
- IC50 ([4]; SNU-16 (FGFR2b positive), 6 days, read-out: IC50): > 20 nM
- Max % Kill ([4]; 6 days): 0.0%
- IC50 ([5]; MFM-223 (FGFR2b positive), 6 days, read-out: IC50): > 20 nM
- Max % Kill ([5]; 6 days): 0.8%
- IC50 ([6]; NCI-H716 (low FGFR2b, high FGFR2c), 6 days, read-out: IC50): > 20 nM
- Max % Kill ([6]; 6 days): 9.9%
- IC50 ([7]; IM-9 (non-FGFR2 expressing), 6 days, read-out: IC50): > 20 nM
- Max % Kill ([7]; 6 days): 3.8%
- Kd [11]: > 30 nM
- Antigen Bound (RU) ([11]; antibody captured on anti-human Fc surface): 0.6 RU
- Kd [12]: 60.8 nM
- ka [12]: 77400 M⁻¹ s⁻¹
- kd [12]: 0.00471 s⁻¹
- Antigen Bound (RU) ([12]; antibody or ADC captured on anti-human Fc surface): 68.3 RU
- t1/2 ([12]; dissociative half-life): 2.5 min
